Assay results as given in patent US20170312253A1 (The Third Affiliated Hospital, Third Military Medical …, priority 2014, published 2017).

What was measured:
[1] = tested on: dendritic spines of pyramidal cells in hippocampus CA1; assay: Golgi staining, dendritic spines; format: in vivo; details: AD mice
Description: (§1) APPswe/PS1DE9 (AD) transgenic mice were purchased from Jackson Laboratory, USA (No. 005864), raised in the SPF grade animal house of The Third Affiliated Hospital of The Third Military Medical University. All the processes and correlated experiments applied to the mice were approved and filed with the Animal Ethics Committee of the Third Military Medical University. […] Alternatively, the daily dose for the prophylactic group may be 6.4 mg/kg, and the daily dose for the treatment group may be 12.8 mg/kg. Administration from 3-month old to 9-month old is the prophylactic test, and administration from 9-month old to 12-month old is the therapeutic test After reaching a stated time, the mice in each group received behavioral tests according to the method in the follows. Three mice in each group were taken for Golgi staining. The remaining mice were overly anaesthetized to receive brain anatomy. One side of the cerebral hemisphere was frozen and then for a biochemical analysis, and the other side of the cerebral hemisphere was fixed with 4% paraform for a histological analysis.
After overly anesthetized, the animals received heart perfusions with normal saline containing 0.5% nitrous acid, 4% paraform, and Golgi dye liquor, successively. […]

[2] = tested on: synapse associated proteins; assay: Western blot of synapse associated proteins; format: in vivo; details: AD mice vs control group
Description: (§2) APPswe/PS1DE9 (AD) transgenic mice were purchased from Jackson Laboratory, USA (No. 005864), raised in the SPF grade animal house of The Third Affiliated Hospital of The Third Military Medical University. All the processes and correlated experiments applied to the mice were approved and filed with the Animal Ethics Committee of the Third Military Medical University. […] Alternatively, the daily dose for the prophylactic group may be 6.4 mg/kg, and the daily dose for the treatment group may be 12.8 mg/kg. […]
(§3) The enzymes related with Aβ formation and degradation their molecule levels, the levels of hyperphosphprylated Tau proteins, and the levels of synaptic plasticity correlated proteins were all detected with Western blot. […] The blotting was detected with the following antibodies: APP C terminal antibody (171610, Millipore), BACE1 antibody (Millipore), Aβ antibody (6E10, Abcam), Nepriiysin antibody (Millipore), RAGE antibody (Millipore), LRP antibody (5A6, Calbiochem), IDE antibody (epitomics), phosphorylated Tau protein antibody, including pS396 (Signalway), pT231 (Signalway), pS199 (epitomics), pS262 (Abcam), SNAP25 antibody (Millipore), Synaptophysin antibody (Millipore), Synapsin I antibody (Millipore), VAMP1 antibody (Millipore), PSD95 antibody (Millipore), F-actin antibody (Actin) (Sigma-Aldrich). […]

LRP = assay: Western blot of Aβ metabolizing enzymes in brain: LRP; format: in vivo; details: AD mice brain
Description: as §2, §3

[3] = tested on: Aβ induced oxidative stress; assay: ROS detection; format: cell-based
Description: The ROS detection was performed according to the scheme provided by the manufacturer (Cell Biolabs Inc).

Aβ 40, Aβ 42 = assay: ELISA of Aβ 40, Aβ 42 in brain extracts (TBS, SDS, FA); format: in vivo; details: AD mice, 2% SDS and FA extracts
Description: as §1
(§4) After homogenating the frozen brain tissues, extraction was conducted with TBS, SDS and formic acid successively. The TBS, SDS and formic acid extracts represent soluble Aβ, loosen senile plaques and compact senile plaques, respectively. […]

microglia = assay: Microglia reaction immunostaining (CD45); format: in vivo; details: AD mice
Description: as §1
Immunohistochemistry in the method of bleach section was carried out according to the previous steps. The primary antibodies were rabbit-anti-mouse CD45 antibody (for labelling microglias), rabbit-anti-mouse GFAP (for labelling astrocytes) and rabbit-anti-mouse pSer396-Tau antibody, respectively. […]

β-secretase (BACE1) = target: T1, β-secretase (BACE1) (Mus musculus, UniProt P56818); assay: β-secretase activity in brain tissues (kit); format: in vivo; details: AD mice brain
T1 construct: The proteins in the brain tissue homogenates were extracted with a RIP A buffer solution; from tissue; host or cells: brain of APPswe/PS1DE9 mice
T1 sequence (P56818 46-501): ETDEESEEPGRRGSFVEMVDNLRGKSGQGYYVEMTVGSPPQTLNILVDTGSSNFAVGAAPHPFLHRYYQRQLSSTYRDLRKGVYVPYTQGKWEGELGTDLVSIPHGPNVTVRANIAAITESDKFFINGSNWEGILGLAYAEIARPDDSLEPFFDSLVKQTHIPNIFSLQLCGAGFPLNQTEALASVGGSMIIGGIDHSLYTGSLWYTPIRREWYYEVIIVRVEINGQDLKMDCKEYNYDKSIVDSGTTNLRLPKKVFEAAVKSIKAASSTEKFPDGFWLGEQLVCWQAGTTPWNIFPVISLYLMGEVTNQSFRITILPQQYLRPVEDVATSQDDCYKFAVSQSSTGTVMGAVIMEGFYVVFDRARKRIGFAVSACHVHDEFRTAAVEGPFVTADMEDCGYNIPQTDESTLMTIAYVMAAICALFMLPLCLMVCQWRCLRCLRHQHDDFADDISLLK
Description: as §1, §4

Gsk-3β = target: T2, Gsk-3β (Mus musculus, UniProt Q9WV60); assay: Gsk-3β activity in the brain of AD mice; format: in vivo
T2 construct: from tissue; host or cells: brain of APPswe/PS1DE9 mice
T2 sequence (Q9WV60 whole entry): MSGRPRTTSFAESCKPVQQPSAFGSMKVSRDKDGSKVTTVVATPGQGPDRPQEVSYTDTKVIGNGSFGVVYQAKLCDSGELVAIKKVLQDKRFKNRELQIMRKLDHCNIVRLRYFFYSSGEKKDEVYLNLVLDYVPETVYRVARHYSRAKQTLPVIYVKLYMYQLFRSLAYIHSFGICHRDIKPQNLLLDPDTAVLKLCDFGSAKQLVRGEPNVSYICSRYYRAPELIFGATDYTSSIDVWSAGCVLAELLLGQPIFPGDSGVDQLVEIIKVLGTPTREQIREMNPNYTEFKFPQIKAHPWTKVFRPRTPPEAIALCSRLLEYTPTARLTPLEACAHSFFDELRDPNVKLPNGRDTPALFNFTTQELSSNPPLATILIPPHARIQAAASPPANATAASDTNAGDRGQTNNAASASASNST
Description: as §1

[4] = tested on: Aβ deposition in the blood vessels of the brain; assay: Cerebrovascular amyloidosis detection (double immunofluorescence 1a4/6E10); format: in vivo; details: AD mice
Description: as §1
A new assessment method was applied in the present research to assess the severity of the cerebrovascular amyloidosis. The blood vessels in the brain were double immunofluorescence stained with α-smooth muscle action antibody (1a4) and Aβ antibody (6E10), observed under eonfocal laser microscopy (Radiance 2000MP, Bio-Rad), and the images of the blood vessels were recorded. The severity of the CAA of each blood vessel was scored based on the following four-level scale: level 0: no Aβ deposition; level 1: little Aβ deposition, Aβ deposition occupies less than one third of the perimeter of the blood vessel; level 2: moderate Aβ deposition, Aβ deposition occupies more than one third but less than two thirds of the perimeter of the blood vessel; level 3: severe deposition, Aβ deposition occupies more than […] of the perimeter of the blood vessel.

α-secretase = α-secretase activity in brain tissues (kit); format: in vivo; details: AD mice brain
Description: as §1, §4

[5] = tested on: oxidation level in the brain; assay: Oxidation level in brain tissues, DNPH Western blotting; format: in vivo; details: AD mice
Description: as §1, with “The remaining mice were overly anaesthetized to receive brain anatomy. One side of the cerebral hemisphere was frozen and then for a biochemical analysis, and the other side of the cerebral hemisphere was fixed with 4% paraform for a histological analysis.” left out
The carbonyl level of the proteins in the tissue reflects the oxidation level in the tissue. DNPH is reacted with the carbonyl of the proteins to form a protein-DNP hydrazone complex, and the level of the complex can he detected with DNPH antibodies so as to assess the oxidation level in the tissue, A 5 μl sample of fresh brain tissues was co-incubated with 12% SDS and a 10 μl DNPH working solution at room temperature for 20 min. […] Samples containing 15 μg total proteins were loaded and detected with Western blot. […]

- activity of β-secretase (BACE1) (β-secretase (BACE1)): significant decrease
- activity of Gsk-3β (Gsk-3β): inhibit the activity of Gsk-3β
- activity of α-secretase (α-secretase): increase of the activity of α-secretase
Structure (SMILES): CC1=NN(c2ccccc2)C(=O)C1 [Edaravone, 3-methyl-1-phenyl-2-pyrazolin-5-one]
- numbers of the dendritic spines [1]: also significantly increased
- expressions of the synapse associated proteins [2]: much higher than in the control group
- influence on LRP (LRP): no influence
- Aβ induced oxidative stress (ROS test) [3]: reverse the Aβ induced oxidative stress
- Aβ 40, Aβ 42 levels in brain extracts (Aβ 40, Aβ 42): significantly reduce the levels of Aβ at different, aggregation states
- microglia reaction level in the brain (microglia; p.o.): significantly reduced, too
- microglia reaction in the brain (microglia; prophylactic and therapeutic test): all reduced significantly
- proportions of the blood vessels at level 0 and level 1 CAA [4]: significantly increased
- proportions of the blood vessels at level 2 and level 3 CAA [4]: significantly reduced
- Aβ deposition in the blood vessels of the brain ([4]; Edaravone treatment group): significantly reduced
- oxidation level in the brain [5]: significantly reduces the oxidation level
